In BindingDB's records for aid1799744 (Csar, 2012) one finds Ki data, which are given here for 72 compounds.

Sequence of Mitogen-activated protein kinase 1 (P28482 whole entry): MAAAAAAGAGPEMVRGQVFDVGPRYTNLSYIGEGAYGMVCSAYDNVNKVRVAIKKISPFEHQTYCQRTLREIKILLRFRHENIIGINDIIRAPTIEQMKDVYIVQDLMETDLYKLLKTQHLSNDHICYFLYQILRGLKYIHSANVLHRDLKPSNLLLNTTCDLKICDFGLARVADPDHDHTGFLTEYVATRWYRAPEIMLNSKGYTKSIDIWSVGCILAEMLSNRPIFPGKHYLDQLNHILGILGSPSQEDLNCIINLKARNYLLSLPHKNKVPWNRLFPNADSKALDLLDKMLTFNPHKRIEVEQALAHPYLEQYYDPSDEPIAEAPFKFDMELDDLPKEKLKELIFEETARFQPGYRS

This experiment concerns the target Mitogen-activated protein kinase 1 (Homo sapiens, UniProt P28482). In words: Assay 1.
As a reminder, the Ki is a dissociation constant, usually derived from enzyme kinetics or from competition with a known ligand. With `CCOC(=O)CNCc1ccc(-c2c[nH]nc2-c2c[nH]c(C(=O)N[C@H](CO)c3ccc(F)c(Cl)c3)c2)cc1Cl` [erk000391], the Ki was 18 nM.

The compound `CNc1ncc(C)c(-c2c[nH]c(C(=O)NCc3ccc(F)c(Cl)c3)c2)n1` [erk000393] came in with a Ki of 282 nM.

The compound `CNc1ncc(C)c(-c2c[nH]c(C(=O)N[C@@H](CO)c3ccc(F)c(Cl)c3)c2)n1` [erk000396] displayed a Ki of 68 nM.

Compound `Cc1cnc(Nc2ccccc2)nc1-c1c[nH]c(C(=O)N[C@@H](CO)c2ccc(F)c(Cl)c2)c1` [erk000397] registered a Ki of 4 nM.

In turn, `Cc1cnc(Nc2ccccc2)nc1-c1c[nH]c(C(=O)NCc2ccc(F)c(Cl)c2)c1` [erk000398] came in with a Ki of 25 nM.

`O=C(N[C@H](CO)c1ccccc1)c1cc(-c2nc(Nc3ccccc3)ncc2C2CC2)c[nH]1` [erk000434] gave an inhibitory constant (Ki) of 417 nM.

Turning to `Cc1ccc([C@@H](CO)NC(=O)c2cc(-c3nc(Nc4ccccc4)ncc3C)c[nH]2)cc1F` [erk000435], the Ki came to 2 nM.

Consider `Cc1ccc([C@@H](CO)NC(=O)c2cc(-c3nc(Nc4cccc(F)c4)ncc3C)c[nH]2)cc1F` [erk000436], for which the Ki is 6 nM.

`Cc1cnc(Nc2cccc(C(F)(F)F)c2)nc1-c1c[nH]c(C(=O)N[C@H](CO)c2ccccc2)c1` [erk000438]: the affinity corresponds to a Ki of 2 nM.

Compound `Cc1cnc(NCc2ccccc2)nc1-c1c[nH]c(C(=O)N[C@H](CO)c2ccccc2)c1` [erk000439] had a Ki of 14 nM.

`Cc1ccc(Nc2ncc(C)c(-c3c[nH]c(C(=O)NCc4cccc(C(F)(F)F)c4)c3)n2)cc1C` [erk000440] displayed a Ki of 28 nM.

The compound `Cc1ccc(Nc2ncc(C)c(-c3c[nH]c(C(=O)N[C@H](CO)c4ccccc4)c3)n2)cc1C` [erk000441] displayed an inhibitory constant (Ki) of 2 nM.

Consider `Cc1cnc(Nc2ccc(OCc3ccccc3)cc2)nc1-c1c[nH]c(C(=O)N[C@H](CO)c2ccccc2)c1` [erk000442], for which the Ki was 3 nM.

`Cc1cnc(NCC(F)(F)F)nc1-c1c[nH]c(C(=O)N[C@H](CO)c2ccccc2)c1` [erk000444] returned a Ki of 5 nM.

Take `Cc1cnc(N[C@H](CO)c2ccccc2)nc1-c1c[nH]c(C(=O)N[C@H](CO)c2ccccc2)c1` [erk000445]: the affinity corresponds to a Ki of 1 nM.

Compound `COc1ccccc1Nc1ncc(C)c(-c2c[nH]c(C(=O)N[C@H](CO)c3ccccc3)c2)n1` [erk000446] showed a Ki of 68 nM.

`Cc1cnc(Nc2ccc(OC(F)(F)F)cc2)nc1-c1c[nH]c(C(=O)N[C@H](CO)c2ccccc2)c1` [erk000447]: the Ki was found to be 2 nM.

`Cc1cnc(NCC(C)C)nc1-c1c[nH]c(C(=O)N[C@H](CO)c2ccccc2)c1` [erk000448] registered a Ki of 3 nM.

`Cc1cnc(NCC2CC2)nc1-c1c[nH]c(C(=O)N[C@H](CO)c2ccccc2)c1` [erk000453] gave a Ki of 5 nM.

For `CCNc1ncc(C)c(-c2c[nH]c(C(=O)N[C@@H](CCO)c3ccccc3)c2)n1` [erk000459], affinity was put at a Ki of 501 nM.

`Cc1cnc(NC2(CO)CC2)nc1-c1c[nH]c(C(=O)N[C@H](CO)c2ccccc2)c1` [erk000460] had a Ki of 1 nM.

With `Cc1cnc(NCCO)nc1-c1c[nH]c(C(=O)N[C@H](CO)c2ccccc2)c1` [erk000461], the affinity, expressed as Ki, was 17 nM.

Turning to `Cc1cnc(N[C@H](C)CO)nc1-c1c[nH]c(C(=O)N[C@H](CO)c2ccccc2)c1` [erk000462], the affinity, expressed as Ki, was 14 nM.

For the compound `Cc1cnc(NC[C@@H](C)O)nc1-c1c[nH]c(C(=O)N[C@H](CO)c2ccccc2)c1` [erk000463], the affinity corresponds to a Ki of 27 nM.

In turn, `Cc1cnc(NC[C@H](C)O)nc1-c1c[nH]c(C(=O)N[C@H](CO)c2ccccc2)c1` [erk000464] returned a Ki of 37 nM.

`Cc1cnc(N[C@H]2CCCC[C@H]2O)nc1-c1c[nH]c(C(=O)N[C@H](CO)c2ccccc2)c1` [erk000465] showed a Ki of 7 nM.

In the case of `CCNc1ncc(C)c(-c2c[nH]c(C(=O)N[C@H](C(=O)OC)c3ccccc3)c2)n1` [erk000470], the inhibition constant Ki was 1000 nM.

On to `Cc1cnc(N[C@@H](C)CO)nc1-c1c[nH]c(C(=O)N[C@H](CO)c2ccccc2)c1` [erk000471], for which the affinity corresponds to a Ki of 15 nM.

`CCNc1ncc(C)c(-c2c[nH]c(C(=O)NCc3ccccc3F)c2)n1` [erk000473] gave a Ki of 794 nM.

`CCNc1ncc(C)c(-c2c[nH]c(C(=O)NCc3cccc(F)c3)c2)n1` [erk000474]: affinity was put at a Ki of 83 nM.

The compound `CCNc1ncc(C)c(-c2c[nH]c(C(=O)NCc3ccccc3OC)c2)n1` [erk000475] displayed a Ki of 468 nM.

Turning to `CCNc1ncc(C)c(-c2c[nH]c(C(=O)NCc3cccc(OC)c3)c2)n1` [erk000476], the Ki amounted to 52 nM.

The compound `CCNc1ncc(C)c(-c2c[nH]c(C(=O)N[C@@H](CO)c3cc(F)cc(C(F)(F)F)c3)c2)n1` [erk000478] gave a Ki of 120 nM.

`CCNc1ncc(C)c(-c2c[nH]c(C(=O)N[C@@H](CO)c3cccc(F)c3)c2)n1` [erk000479] gave a Ki of 9 nM.

Consider `CCNc1ncc(C)c(-c2c[nH]c(C(=O)NCc3ccccc3O)c2)n1` [erk000480], for which the affinity, expressed as Ki, was 1510 nM.

Compound `CCNc1ncc(C)c(-c2c[nH]c(C(=O)NCc3cccc(O)c3)c2)n1` [erk000484] gave a Ki of 68 nM.

The compound `CCNc1ncc(C)c(-c2c[nH]c(C(=O)NCc3ccc(O)c(O)c3)c2)n1` [erk000485] gave a Ki of 427 nM.

Compound `CCNc1ncc(C)c(-c2c[nH]c(C(=O)N[C@@H](CO)c3ccccc3F)c2)n1` [erk000486] gave a Ki of 229 nM.

The compound `Cc1cnc(N[C@@H](CO)CC2CC2)nc1-c1c[nH]c(C(=O)N[C@H](CO)c2ccccc2)c1` [erk000487] had an inhibitory constant (Ki) of 4 nM.

`Cc1cnc(N[C@H](CO)C(C)C)nc1-c1c[nH]c(C(=O)N[C@H](CO)c2ccccc2)c1` [erk000488] registered a Ki of 14 nM.

For `CCNc1ncc(C)c(-c2c[nH]c(C(=O)N[C@@H](C(C)=O)c3ccccc3)c2)n1` [erk000489], affinity was put at a Ki of 1910 nM.

For the compound `CCNc1ncc(C)c(-c2c[nH]c(C(=O)N[C@H](CO)c3cccc(C(F)(F)F)c3)c2)n1` [erk000491], affinity was put at a Ki of 13 nM.

As for `Cc1cnc(NC2CC2)nc1-c1c[nH]c(C(=O)N[C@H](CO)c2cccc(C(F)(F)F)c2)c1` [erk000492], affinity was put at a Ki of 2 nM.

As for `CONc1ncc(C)c(-c2c[nH]c(C(=O)N[C@H](CO)c3ccccc3)c2)n1` [erk000493], the Ki came to 29 nM.

In turn, `Cc1cnc(NOC(C)C)nc1-c1c[nH]c(C(=O)N[C@H](CO)c2ccccc2)c1` [erk000494] displayed a Ki of 10 nM.

On to `CC(=O)Nc1ncc(C)c(-c2c[nH]c(C(=O)N[C@H](CO)c3ccccc3)c2)n1` [erk000496], for which affinity was put at a Ki of 32 nM.

The compound `Cc1cnc(NC[C@H]2CCCO2)nc1-c1c[nH]c(C(=O)N[C@H](CO)c2ccccc2)c1` [erk000497] registered a Ki of 14 nM.

`CCOC(=O)NNc1ncc(C)c(-c2c[nH]c(C(=O)N[C@H](CO)c3ccccc3)c2)n1` [erk000498]: affinity was put at a Ki of 646 nM.

In turn, `CN(C)c1sc(C#N)c2c1-c1nc(Nc3cccc(O)c3)ncc1CC2` [erk000499] yielded a Ki of 40 nM.

Compound `Cc1cnc(NOCC2CC2)nc1-c1c[nH]c(C(=O)N[C@H](CO)c2ccccc2)c1` [erk000500] registered a Ki of 26 nM.

`Cc1cnc(-c2ccccc2)nc1-c1c[nH]c(C(=O)N[C@H](CO)c2ccccc2)c1` [erk000501] returned a Ki of 20 nM.

`Cc1ncc(C)c(-c2c[nH]c(C(=O)N[C@H](CO)c3ccccc3)c2)n1` [erk000502] registered a Ki of 257 nM.

Compound `Cc1cnc(NC#N)nc1-c1c[nH]c(C(=O)N[C@H](CO)c2ccccc2)c1` [erk000503] displayed an inhibition constant Ki of 25 nM.

For `Cc1cnc(NOCCO)nc1-c1c[nH]c(C(=O)N[C@H](CO)c2ccccc2)c1` [erk000504], the affinity, expressed as Ki, was 18 nM.

The compound `Cc1cnc(NN(C)C)nc1-c1c[nH]c(C(=O)N[C@H](CO)c2ccccc2)c1` [erk000505] displayed a Ki of 7 nM.

For the compound `CC[C@@H](CO)Nc1ncc(C)c(-c2c[nH]c(C(=O)N[C@H](CO)c3cccc(Cl)c3)c2)n1` [erk000507], affinity was put at a Ki of 2 nM.

`c1ccc2c(Nc3cc(C4CC4)n[nH]3)nc(Nc3ccc4nc[nH]c4c3)nc2c1` [erk000508] registered a Ki of 78 nM.

As for `Cc1cnc(NC(CO)CO)nc1-c1c[nH]c(C(=O)N[C@H](CO)c2ccccc2)c1` [erk000509], the affinity corresponds to a Ki of 5 nM.

For `Cc1cnc(N[C@@H]2C[C@@H]2C)nc1-c1c[nH]c(C(=O)N[C@H](CO)c2ccccc2)c1` [erk000510], the Ki was 0.5 nM.

`Cc1cnc(NC(C)(CO)CO)nc1-c1c[nH]c(C(=O)N[C@H](CO)c2ccccc2)c1` [erk000512]: the Ki came out at 6 nM.

Compound `Cc1cnc(NC2(CO)CCCC2)nc1-c1c[nH]c(C(=O)N[C@H](CO)c2ccccc2)c1` [erk000513] had an inhibition constant (Ki) of 51 nM.

`Cc1cnc(N[C@H](CO)CC(C)C)nc1-c1c[nH]c(C(=O)N[C@H](CO)c2ccccc2)c1` [erk000514] displayed an inhibition constant (Ki) of 9 nM.

In turn, `Cc1cnc(N[C@H]2C[C@H]2CO)nc1-c1c[nH]c(C(=O)N[C@H](CO)c2ccccc2)c1` [erk000515] showed a Ki of 21 nM.

`Cc1cnc(NC2CCCC2)nc1-c1c[nH]c(C(=O)N[C@H](CO)c2ccccc2)c1` [erk000516] showed a Ki of 2 nM.

`Cc1cnc(Nc2ccccn2)nc1-c1c[nH]c(C(=O)N[C@H](CO)c2ccccc2)c1` [erk000517] displayed a Ki of 0.4 nM.

On to `Cc1ccnc(Nc2ncc(C)c(-c3c[nH]c(C(=O)N[C@H](CO)c4ccccc4)c3)n2)c1` [erk000518], for which the inhibition constant (Ki) was 4 nM.

In turn, `Cc1cnc(NCCN2CCOCC2)nc1-c1c[nH]c(C(=O)N[C@H](CO)c2ccccc2)c1` [erk000519] returned a Ki of 120 nM.

`Cc1cnc(NCC[C@@H]2CCCN2C)nc1-c1c[nH]c(C(=O)N[C@H](CO)c2ccccc2)c1` [erk000520] returned a Ki of 537 nM.

`Cc1cccnc1Nc1ncc(C)c(-c2c[nH]c(C(=O)N[C@H](CO)c3ccccc3)c2)n1` [erk000521] returned a Ki of 91 nM.

For the compound `Cc1cccc([C@@H](CO)NC(=O)c2cc(-c3nc(NC(C)C)ncc3C)c[nH]2)c1` [erk000522], the Ki came out at 1 nM.

`Cc1cccc([C@@H](CO)NC(=O)c2cc(-c3nc(NCC(C)C)ncc3C)c[nH]2)c1` [erk000523] showed a Ki of 2 nM.

As for `Cc1cnc(NCC(C)C)nc1-c1c[nH]c(C(=O)N[C@H](CO)c2cccc(Cl)c2)c1` [erk000525], affinity was put at a Ki of 3 nM.
